Experimental data taken from patent US20140088144A1, “INHIBITING MICROBIAL INFECTIONS” (THE UNIVERSITY OF KANSAS, priority 2012, published 2014).

Columns and labels:
MBP-VirF = target: T1, MBP-VirF (Shigella flexneri, UniProt P0A2T1); test: Fluorescence-based thermal shift assay (Sypro Orange), VirF; format: binding
T1 construct: made in house; host or cells: E. coli KS 1000, plasmid pMALvirF
Description: Binding of SE-1 to purified VirF was tested by comparing the VirF melting temperature (Tm) in the absence and presence of SE-1 using a thermal shift assay with the fluorescent dye Sypro Orange (Molecular Probes). This method is also known as differential scanning fluorimetry or DSF. As a control, we tested binding of SE-1 to the purified, unrelated, MBP-NS1-NTD protein (greater than 95% pure). […] The reactions were carried out in 0.1 ml PCR low profile 8-tube strips with optically clear flat caps (USA Scientific) in a StepOnePlus™ Real-Time PCR System (Applied Biosystems), heating from 25 to 99° C. in increments of 0.8° C. The data was analyzed using the Boltzmann sigmoidal model in the software Prism (GraphPad). Data points before and after the fluorescence intensity minimum and maximum, respectively, were excluded from fitting. The ΔTm values are the average of three independent experiments with two replicates in each experiment. A single, representative, experiment is shown.

[1] = test system: Shigella invasion of HeLa cells; test: Shigella invasion of HeLa cells; format: cell-based, Shigella flexneri strain M90T; conditions: bacteria grown with compound before addition to cells
Description: We assayed the effect of Compound 1 on the interaction of Shigella with cultured human epithelial cells. Shigella flexneri strain M90T was grown to maximize type III secretion system [Shigella] expression. Shigella was assayed for invasion of HeLa cells. The bacterial cells were grown in the presence of Compound 1 prior to addition to tissue culture wells. Invasion assays involved, briefly, incubation of Shigella cells in tissue culture wells, washing to remove non-adherent bacteria, addition of gentamycin to kill bacterial cells that had not invaded the epithelial cells, trypsin treatment to dislodge epithelial cells, serial dilutions and plating on LB to enumerate bacterial colonies

rrsA = test: Shigella gene expression qRT-PCR, internal control rrsA; format: cell-based, S. flexneri; conditions: for Average ΔΔCt / Ct / RQ (2^−ΔΔCt) / ΔΔCt^1 (normalized to gapA): rrsA, example data
Description: Real-time quantitative reverse transcription PCR (qRT-PCR) was performed to test the effects of SE-1 on the expression of the VirF regulated genes virB, icsA, icsB and ipaB. The gapA and rrsA transcripts were used as internal controls. These are constitutively expressed Shigella genes commonly used to normalize mRNA levels. S. flexneri strain SME4331, which carries a null mutation in ipgD (ipgD), was grown at 30° C. overnight in TSB with ampicillin, diluted into the same medium to an OD600 of ˜0.1, and 1 ml aliquots further grown at 30° C. (DMSO only) or at 37° C. (SE-1 at 20 or 40 μM, or DMSO only, all 0.3% DMSO). Cells were grown to an OD600 of 1.0 (˜2.5 h) and RNA was isolated using an RNeasy MiniElute Cleanup Kit (Qiagen, Germantown, Md.), with DNA contamination eliminated using a Turbo DNase Kit (Ambion, Austin, Tex.). Complementary DNA (cDNA) was synthesized by random priming using a cDNA Reverse Transcription Kit (Applied Biosystems, Foster City, Calif.). Primers were tested for PCR specificity using genomic DNA template to ensure a single amplicon of the expected size for each primer pair, and validated using 5-fold dilutions of cDNA (2000 to 0.0256 ng) to ensure a linear plot of cycle threshold (Ct) versus cDNA concentration. Validated primer sets were used to test mRNA profiles in reactions that contained 10 ng of cDNA, 10 μl of SYBR green master mix (Applied Biosystems), specific primers (0.5 μM each) and water to a final volume of 20 μl, using a Step One Plus Real-Time PCR System (Applied Biosystems). The data was analyzed using the 2^−ΔΔCt method, and also by Applied Biosystems real-time analysis software. […] In brief, ΔΔCt values [ΔΔCt=(Ct,Target−Ct,Internal Control)SE-1−(Ct,Target−Ct,Internal Control)no SE-1] were separately obtained for each sample relative to two internal controls, gapA and rrsA. The ΔΔCt values relative to the two internal controls for each sample were averaged and then used to calculate the relative expression levels (2^−ΔΔCt). As a control, we also normalized each internal control to the other internal control. Control reactions used templates generated without reverse transcriptase to ensure low genomic DNA contamination. To ensure that products were not likely to be due to primer dimer artifacts, additional control samples were performed in which reaction mixtures contained primers alone (no template).

T1 sequence (P0A2T1 whole entry): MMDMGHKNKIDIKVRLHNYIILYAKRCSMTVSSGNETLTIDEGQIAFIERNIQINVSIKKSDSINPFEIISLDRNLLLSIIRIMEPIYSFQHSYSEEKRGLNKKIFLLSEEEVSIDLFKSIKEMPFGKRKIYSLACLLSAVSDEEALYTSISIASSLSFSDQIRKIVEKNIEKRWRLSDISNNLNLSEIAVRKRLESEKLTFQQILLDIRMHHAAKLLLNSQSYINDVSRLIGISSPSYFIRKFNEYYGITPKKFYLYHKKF

CCCCN1C=C(c2ccc3ccccc3n2)C(C[N+](=O)[O-])c2ccccc21 (stereo not drawn) [Compound 1, 1-butyl-4-(nitromethyl)-3-quinolin-2-yl-4H-quinoline]
ΔTm for VirF (MBP-VirF; 40 μM SE-1): 0.15 °C | increase of Tm of VirF (ΔTm) (MBP-VirF; 80 μM SE-1, 1 μM VirF): 0.61 °C | ability of Shigella to invade human epithelial cells [1]: reduced | expression of control gene rrsA (rrsA; 40 μM SE-1, normalized to gapA): no decrease | Average ΔΔCt (rrsA; SE-1 20 μM): −1.0 | Ct (rrsA; SE-1 20 μM): 18.55 | RQ (2^−ΔΔCt) (rrsA; SE-1 20 μM): 2 | ΔΔCt^1 (normalized to gapA) (rrsA; SE-1 20 μM): −1.0 | Average ΔΔCt (rrsA; SE-1 40 μM): 0.69 | Ct (rrsA; SE-1 40 μM): 18.29 | RQ (2^−ΔΔCt) (rrsA; SE-1 40 μM): 1.62 | ΔΔCt^1 (normalized to gapA) (rrsA; SE-1 40 μM): 0.69
